US6642003B2, “Human glucose-dependent insulin-secreting cell line” (Cedars-Sinai Medical Center, priority 2001, dated 2003)

What was measured:
diabetic rats = details: adult animals after subtotal pancreatectomy; cited from earlier work
PANC-1/IDX-1 cells = assay: RT-PCR of islet β-cell specific transcripts, PANC-1/IDX-1 cells; format: cell-based, human; details: Exendin-9 100 nM for 72 h
Method: PANC-1 cells were transfected with a pcDNA3 construct (Invitrogen; Carlsbad, Calif.) harboring the wild-type full-length IDX-1 cDNA using LipoTAXI (Catalog N. 204110; Mammalian Transfection Kit, Stratagene; La Jolla, Calif.). Control cells were transfected with the vector alone. The selection of positive (i.e. transfected) cells was carried out by culturing the cells in the presence of 400 μg/ml of G418 sulfate (GN-04, Omega; Tarzana, Calif.).
(§1) After the treatment of ARIP and PANC-1 cells with GLP-1, Exendin-9, or vehicle, for the described length of time and the various doses, the culture medium was removed and the cells were washed (twice) with serum-free medium. Total RNA was isolated using the TRiazol-method (Gibco-BRL), and treated with DNase (Amplification Grade, GibcoBRL) in 20 mmol/l Tris-HCL (pH 8.4), 2 mmol/l MgCl2, and 50 mmol/l KCl to remove any traces of contaminating genomic DNA. RNA (2.5 μg) was then subjected to reverse transcription (RT reagents; Promega; Madison, Wis.). RT-PCR was undertaken in a volume of 50 μl of buffer containing 50 mmol/l KCl, 10 mmol/l Tris-HCl, 3.5 mmol/l MgCl2, 200 μmol/l each dNTPs, and 0.4 μmol/l each of sense and antisense primers to rat or human insulin (depending on the specific cell from which the RNA was extracted). Amplification was performed for 30 cycles at the denaturing temperature of 94° C. for 1 min, annealing temperature of 60° C. for 45 sec, and an extension temperature of 72° C. for 1 min. […] These included more irregular and variable cell shapes, with a cytoplasm less homogenous and “rougher” in appearance than control culture.
(§2) Treatment with GLP-1 induces the differentiation of ductal epithelial cells into insulin-producing cells. FIG. 2 illustrates a series of cell cultures grown with or without GLP-1 (10 nM) for 72 h. […] Preabsorption of the antibody with an excess of human recombinant insulin prevented the staining of insulin-positive GLP-1 treated cells (data not shown). While treatment with GLP-1 turned the majority of ARIP cells into […] For β-actin, the annealing temperature was raised to 64° C. for 1 min and gene-specific primers were used. For GLP-1-receptor (GLP-R) the annealing temperature used was 55° C. All other experimental conditions to amplify GLUT2, glucokinase, and GLP-R mRNAs were identical to those described for the amplification of insulin mRNA. RT and PCR conditions for human transcripts were identical to those described for rat mRNAs.
(§3) Southern blotting with species-specific full length cDNA probes for insulin, GLUT-2, glucokinase, GLP-1 receptor and β-actin was performed as previously described. Y. Wang, R. Perfetti, N. H. Greig, H. W. Holloway, K. A. DeOre, C. Montrose-Rafizadeh, D. Elahi, J. M. Egan, “Glucagon-like peptide-1 can reverse the age-related decline in glucose tolerance in rats.” J Clin Invest 99:2883-2889, 1997.

ARIP cells = assay: RT-PCR of islet β-cell specific transcripts, ARIP cells; format: cell-based, rat; details: Exendin-9 100 nM for 72 h
Method: as §1, §2, §3

Row | Substance | effect on islet mass (diabetic rats) | effect on expression of β-cell-specific genes (PANC-1/IDX-1 cells) | effect on expression of β-cell-specific genes (ARIP cells)
1 | exendin4: an analog of the incretin hormone glucagon-like-peptide-1 | increase islet mass |  | 
2 | Exendin-9: the peptide receptor antagonist of GLP-1 |  | inhibited the expression of GLUT-2, insulin and glucokinase | inhibited the expression of GLUT-2, insulin and glucokinase
